Measured values from ChEMBL document CHEMBL1129132, “8-amino-6-(arylsulphonyl)-5-nitroquinolines: novel nonpeptide neuropeptide Y1 receptor antagonists” (Bioorg Med Chem Lett, 1996).

target: T1, Neuropeptide Y receptor type 1 (Homo sapiens, UniProt P25929); experiment: Compound was tested for binding affinity against neuropeptide Y1 (NPY1) receptor from SK-N-MC membranes using [125I]PYY as radioligand
T1 sequence (P25929 whole entry): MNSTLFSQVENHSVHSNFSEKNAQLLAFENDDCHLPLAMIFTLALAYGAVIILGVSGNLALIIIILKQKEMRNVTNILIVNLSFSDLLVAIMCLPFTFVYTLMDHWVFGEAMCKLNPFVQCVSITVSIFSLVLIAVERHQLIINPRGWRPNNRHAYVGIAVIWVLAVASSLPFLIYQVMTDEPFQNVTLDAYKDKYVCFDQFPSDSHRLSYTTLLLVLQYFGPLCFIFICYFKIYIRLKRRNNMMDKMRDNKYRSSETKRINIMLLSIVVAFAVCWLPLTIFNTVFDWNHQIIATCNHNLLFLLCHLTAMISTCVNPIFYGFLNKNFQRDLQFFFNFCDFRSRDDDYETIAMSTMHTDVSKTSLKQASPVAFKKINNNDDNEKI

First: Nc1ccc([S+]([O-])c2cc(N)c3ncccc3c2[N+](=O)[O-])cc1 (configuration not stated)
Second: Nc1ccc(Sc2cc(N)c3ncccc3c2[N+](=O)[O-])cc1
The Ki of the first is lower: 1.25 µM for the first, > 10 µM for the second. The first binds more tightly here.

First: Nc1ccc(S(=O)(=O)c2ccc3ncccc3c2[N+](=O)[O-])cc1
Second: Nc1ccc(S(=O)(=O)c2cc(N)c3ncccc3c2[N+](=O)[O-])cc1
The Ki of the first is higher: > 10 µM for the first, 0.282 µM for the second. The second binds more tightly here.

Cc1cc(S(=O)(=O)c2ccccc2)c([N+](=O)[O-])c2cccnc12 and CNc1cc(S(=O)(=O)c2ccccc2)c([N+](=O)[O-])c2cccnc12 cannot be ordered by Ki: > 10 µM for the first, > 10 µM for the second.

Nc1ccc(S(=O)(=O)c2cc(N)c3ncccc3c2)cc1 and Nc1ccc(S(=O)(=O)c2cc(N)c3ncccc3c2N)cc1 cannot be ordered by Ki: > 10 µM for the first, > 10 µM for the second.

CS(=O)(=O)c1cc(N)c2ncccc2c1[N+](=O)[O-] and Nc1cc(NS(=O)(=O)c2ccccc2)c([N+](=O)[O-])c2cccnc12 cannot be ordered by Ki: > 10 µM for the first, > 10 µM for the second.

target: T2, Neuropeptide Y receptor type 2 (Rattus norvegicus, UniProt Q9ERC0); experiment: Compound was tested for binding affinity against neuropeptide Y2 (NPY2) receptor from rat hippocampi.; format: tissue-based, Hippocampus
T2 sequence (Q9ERC0 whole entry): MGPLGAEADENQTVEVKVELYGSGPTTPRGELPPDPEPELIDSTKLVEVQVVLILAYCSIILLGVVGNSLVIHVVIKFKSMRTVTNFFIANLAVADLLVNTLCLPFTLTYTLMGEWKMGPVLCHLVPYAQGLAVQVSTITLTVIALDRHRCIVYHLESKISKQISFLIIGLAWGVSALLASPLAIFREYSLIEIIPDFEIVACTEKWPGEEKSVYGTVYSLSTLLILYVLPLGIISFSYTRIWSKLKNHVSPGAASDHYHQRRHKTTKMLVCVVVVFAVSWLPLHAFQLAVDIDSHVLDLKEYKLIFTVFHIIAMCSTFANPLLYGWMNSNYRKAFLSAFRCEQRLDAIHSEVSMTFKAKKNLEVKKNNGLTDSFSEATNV

CC(C)c1ccccc1S(=O)(=O)c1cc(N)c2ncccc2c1[N+](=O)[O-] gave an IC50 of 10 µM.

In the case of Nc1ccc(S(=O)(=O)c2cc(N)c3ncccc3c2[N+](=O)[O-])cc1, the Ki is reported as > 10 µM.
